Laboratory results: PMC12748989 (Nature Communications, 2025)

Experiments:
PBMC = conditions: 12.5 µM

Structure (SMILES)	Average (percentage cell inhibition), Dmastoparan MDA-MB231 12.5uM (MDA-MB-231 cells) [%]	Average (percentage cell inhibition), Mastoparan PBMC (PBMC) [%]
CC[C@H](C)[C@H](N)C(=O)N[C@@H](CC(N)=O)C(=O)N[C@@H](CC(C)C)C(=O)N[C@@H](CCCCN)C(=O)N[C@@H](C)C(=O)N[C@@H](CC(C)C)C(=O)N[C@@H](C)C(=O)N[C@@H](C)C(=O)N[C@@H](CC(C)C)C(=O)N[C@H](C(=O)N[C@@H](CCCCN)C(=O)N[C@@H](CCCCN)C(=O)N[C@H](C(=O)N[C@@H](CC(C)C)C(N)=O)[C@@H](C)CC)C(C)C [V10]	85.9235	37.352
CC[C@H](C)[C@H](N)C(=O)N[C@@H](CC(N)=O)C(=O)N[C@@H](CC(C)C)C(=O)N[C@@H](CC(N)=O)C(=O)N[C@@H](C)C(=O)N[C@@H](CC(C)C)C(=O)N[C@@H](C)C(=O)N[C@@H](C)C(=O)N[C@@H](CC(C)C)C(=O)N[C@@H](C)C(=O)N[C@@H](CCCCN)C(=O)N[C@@H](CCCCN)C(=O)N[C@H](C(=O)N[C@@H](CC(C)C)C(N)=O)[C@@H](C)CC [N4]	50.001	12.5207
CC[C@H](C)[C@H](N)C(=O)N[C@@H](CC(N)=O)C(=O)N[C@@H](CC(C)C)C(=O)N[C@@H](CCCCN)C(=O)N[C@@H](C)C(=O)N[C@@H](CC(C)C)C(=O)N[C@@H](C)C(=O)N[C@@H](C)C(=O)N[C@@H](CC(C)C)C(=O)N[C@@H](Cc1c[nH]cn1)C(=O)N[C@@H](CCCCN)C(=O)N[C@@H](CCCCN)C(=O)N[C@H](C(=O)N[C@@H](CC(C)C)C(N)=O)[C@@H](C)CC [H10]	-5.968	-10.8779
CC[C@H](C)[C@H](N)C(=O)N[C@@H](CC(N)=O)C(=O)N[C@@H](CCC(N)=O)C(=O)N[C@@H](CCCCN)C(=O)N[C@@H](C)C(=O)N[C@@H](CC(C)C)C(=O)N[C@@H](C)C(=O)N[C@@H](C)C(=O)N[C@@H](CC(C)C)C(=O)N[C@@H](C)C(=O)N[C@@H](CCCCN)C(=O)N[C@@H](CCCCN)C(=O)N[C@H](C(=O)N[C@@H](CC(C)C)C(N)=O)[C@@H](C)CC [Q3]	20.3646	10.4738
CC[C@H](C)[C@H](N)C(=O)N[C@@H](CC(N)=O)C(=O)N[C@@H](CC(C)C)C(=O)N[C@@H](CCCCN)C(=O)N[C@@H](C)C(=O)N[C@@H](CC(C)C)C(=O)N[C@@H](C)C(=O)N[C@H](C(=O)N[C@@H](CC(C)C)C(=O)N[C@@H](C)C(=O)N[C@@H](CCCCN)C(=O)N[C@@H](CCCCN)C(=O)N[C@H](C(=O)N[C@@H](CC(C)C)C(N)=O)[C@@H](C)CC)[C@@H](C)O [T8]	35.9719	11.6569
CC[C@H](C)[C@H](N)C(=O)N[C@@H](CC(N)=O)C(=O)N[C@@H](CC(C)C)C(=O)N[C@@H](CCCCN)C(=O)N[C@@H](C)C(=O)N[C@@H](CC(C)C)C(=O)N[C@@H](C)C(=O)N[C@H](C(=O)N[C@@H](CC(C)C)C(=O)N[C@@H](C)C(=O)N[C@@H](CCCCN)C(=O)N[C@@H](CCCCN)C(=O)N[C@H](C(=O)N[C@@H](CC(C)C)C(N)=O)[C@@H](C)CC)C(C)C [V8]	43.0954	11.0844
CC[C@H](C)[C@H](N)C(=O)N[C@@H](CC(N)=O)C(=O)N[C@@H](CC(C)C)C(=O)N[C@@H](CCCCN)C(=O)N[C@@H](C)C(=O)N[C@@H](CC(C)C)C(=O)N[C@@H](C)C(=O)N[C@@H](C)C(=O)N[C@@H](CC(C)C)C(=O)N[C@@H](CCCCN)C(=O)N[C@@H](CCCCN)C(=O)N[C@@H](CCCCN)C(=O)N[C@H](C(=O)N[C@@H](CC(C)C)C(N)=O)[C@@H](C)CC [K10]	22.5673	0.05559
CC[C@H](C)[C@H](N)C(=O)NCC(=O)N[C@@H](CC(C)C)C(=O)N[C@@H](CCCCN)C(=O)N[C@@H](C)C(=O)N[C@@H](CC(C)C)C(=O)N[C@@H](C)C(=O)N[C@@H](C)C(=O)N[C@@H](CC(C)C)C(=O)N[C@@H](C)C(=O)N[C@@H](CCCCN)C(=O)N[C@@H](CCCCN)C(=O)N[C@H](C(=O)N[C@@H](CC(C)C)C(N)=O)[C@@H](C)CC [G2]	71.0378	15.6884
CC[C@H](C)[C@H](N)C(=O)N[C@@H](C)C(=O)N[C@@H](CC(C)C)C(=O)N[C@@H](CCCCN)C(=O)N[C@@H](C)C(=O)N[C@@H](CC(C)C)C(=O)N[C@@H](C)C(=O)N[C@@H](C)C(=O)N[C@@H](CC(C)C)C(=O)N[C@@H](C)C(=O)N[C@@H](CCCCN)C(=O)N[C@@H](CCCCN)C(=O)N[C@H](C(=O)N[C@@H](CC(C)C)C(N)=O)[C@@H](C)CC [A2]	38.1038	9.183
CC[C@H](C)[C@H](N)C(=O)N[C@@H](CC(N)=O)C(=O)N[C@@H](CC(C)C)C(=O)N[C@@H](CCCCN)C(=O)N[C@@H](C)C(=O)N[C@@H](CC(C)C)C(=O)N[C@@H](C)C(=O)N[C@@H](C)C(=O)N[C@@H](CC(C)C)C(=O)N[C@@H](Cc1ccc(O)cc1)C(=O)N[C@@H](CCCCN)C(=O)N[C@@H](CCCCN)C(=O)N[C@H](C(=O)N[C@@H](CC(C)C)C(N)=O)[C@@H](C)CC [Y10]	27.1013	11.2083
CC[C@H](C)[C@H](N)C(=O)N[C@@H](CC(N)=O)C(=O)N[C@@H](CC(C)C)C(=O)N[C@@H](CCCCN)C(=O)N[C@@H](C)C(=O)N[C@@H](CC(C)C)C(=O)N[C@@H](C)C(=O)N[C@@H](C)C(=O)N[C@@H](CC(C)C)C(=O)N[C@@H](C)C(=O)N[C@@H](CCCCN)C(=O)N[C@@H](CCCCN)C(=O)N[C@H](C(=O)N[C@@H](CO)C(N)=O)[C@@H](C)CC [S14]	38.8299	-3.76
CC[C@H](C)[C@H](N)C(=O)N[C@@H](CC(N)=O)C(=O)N[C@@H](CC(C)C)C(=O)N[C@@H](CCC(N)=O)C(=O)N[C@@H](C)C(=O)N[C@@H](CC(C)C)C(=O)N[C@@H](C)C(=O)N[C@@H](C)C(=O)N[C@@H](CC(C)C)C(=O)N[C@@H](C)C(=O)N[C@@H](CCCCN)C(=O)N[C@@H](CCCCN)C(=O)N[C@H](C(=O)N[C@@H](CC(C)C)C(N)=O)[C@@H](C)CC [Q4]	34.9808	-3.9555
CC[C@H](C)[C@H](N)C(=O)N[C@@H](CC(N)=O)C(=O)N[C@@H](CC(C)C)C(=O)N[C@@H](CCCCN)C(=O)N[C@@H](C)C(=O)N[C@@H](CC(C)C)C(=O)N[C@@H](C)C(=O)N[C@@H](C)C(=O)N[C@@H](CC(C)C)C(=O)N[C@H](C(=O)N[C@@H](CCCCN)C(=O)N[C@@H](CCCCN)C(=O)N[C@H](C(=O)N[C@@H](CC(C)C)C(N)=O)[C@@H](C)CC)[C@@H](C)CC [I10]	54.8759	25.836
CC[C@H](C)[C@H](N)C(=O)N[C@@H](CC(N)=O)C(=O)N[C@@H](CC(C)C)C(=O)N[C@@H](CCCCN)C(=O)N[C@@H](C)C(=O)N[C@@H](CC(C)C)C(=O)N[C@@H](C)C(=O)N[C@@H](C)C(=O)N[C@@H](CC(C)C)C(=O)N[C@@H](C)C(=O)N1CCC[C@H]1C(=O)N[C@@H](CCCCN)C(=O)N[C@H](C(=O)N[C@@H](CC(C)C)C(N)=O)[C@@H](C)CC [P11]	-0.07814	-9.695
CC[C@H](C)[C@H](N)C(=O)N[C@@H](CC(N)=O)C(=O)N[C@@H](CC(C)C)C(=O)N[C@@H](CCCCN)C(=O)N[C@@H](C)C(=O)N[C@@H](CC(C)C)C(=O)N[C@@H](C)C(=O)N[C@@H](C)C(=O)N[C@@H](CC(C)C)C(=O)N[C@@H](C)C(=O)NCC(=O)N[C@@H](CCCCN)C(=O)N[C@H](C(=O)N[C@@H](CC(C)C)C(N)=O)[C@@H](C)CC [G11]	29.778	15.1682
CC[C@H](C)[C@H](N)C(=O)N[C@@H](CCC(=O)O)C(=O)N[C@@H](CC(C)C)C(=O)N[C@@H](CCCCN)C(=O)N[C@@H](C)C(=O)N[C@@H](CC(C)C)C(=O)N[C@@H](C)C(=O)N[C@@H](C)C(=O)N[C@@H](CC(C)C)C(=O)N[C@@H](C)C(=O)N[C@@H](CCCCN)C(=O)N[C@@H](CCCCN)C(=O)N[C@H](C(=O)N[C@@H](CC(C)C)C(N)=O)[C@@H](C)CC [E2]	39.1083	11.8092
CC[C@H](C)[C@H](N)C(=O)N[C@@H](CC(N)=O)C(=O)N[C@@H](CC(C)C)C(=O)N[C@@H](CCCCN)C(=O)N[C@@H](C)C(=O)N[C@@H](CC(C)C)C(=O)N[C@H](C(=O)N[C@@H](C)C(=O)N[C@@H](CC(C)C)C(=O)N[C@@H](C)C(=O)N[C@@H](CCCCN)C(=O)N[C@@H](CCCCN)C(=O)N[C@H](C(=O)N[C@@H](CC(C)C)C(N)=O)[C@@H](C)CC)C(C)C [V7]	57.1739	22.1422
CC[C@H](C)[C@H](N)C(=O)N[C@@H](CC(N)=O)C(=O)N[C@@H](CC(C)C)C(=O)N[C@@H](CCCCN)C(=O)N[C@@H](CCCNC(=N)N)C(=O)N[C@@H](CC(C)C)C(=O)N[C@@H](C)C(=O)N[C@@H](C)C(=O)N[C@@H](CC(C)C)C(=O)N[C@@H](C)C(=O)N[C@@H](CCCCN)C(=O)N[C@@H](CCCCN)C(=O)N[C@H](C(=O)N[C@@H](CC(C)C)C(N)=O)[C@@H](C)CC [R5]	27.1833	-0.4192
CC[C@H](C)[C@H](N)C(=O)N[C@@H](CC(N)=O)C(=O)N[C@@H](CC(C)C)C(=O)N[C@@H](CCCCN)C(=O)N[C@@H](Cc1ccc(O)cc1)C(=O)N[C@@H](CC(C)C)C(=O)N[C@@H](C)C(=O)N[C@@H](C)C(=O)N[C@@H](CC(C)C)C(=O)N[C@@H](C)C(=O)N[C@@H](CCCCN)C(=O)N[C@@H](CCCCN)C(=O)N[C@H](C(=O)N[C@@H](CC(C)C)C(N)=O)[C@@H](C)CC [Y5]	43.7779	12.3024
